Experiments:
Assay type in all cases: in vivo
Abutilon [1] = assay: Pre-emergent herbicidal action (B.2); conditions: 500 bis 2000 [g/ha], evaluated after 3 weeks
Experimental: (§1) Im Gewächshaus wird unmittelbar nach der Einsaat der Versuchspflanzen in Saatschalen die Erdoberfläche mit einer wässrigen Dispersion der Wirkstoffe, erhalten aus einem 25 %igen Emulsionskonzentrat behandelt. Es werden Konzentrationen von 2000-500 g Wirksubstanz/Hektar angewendet. Die Saatschalen werden im Gewächshaus bei 22-25° C und 50-70 % relativer Luftfeuchtigkeit gehalten und der Versuch nach 3 Wochen ausgewertet und die Resultate nach folgender Notenskala ausgewertet. • 1 Pflanze hat nicht gekeimt oder ist eingegangen • 2-3 sehr starke Schäden • 4 starke Schäden • 5 mittlere Schäden, die Pflanzen sind verkümmert • 6 Schäden, die Pflanze kann regenerieren • 7-8 leichte Schäden • 9 normales Wachstum, wie das unbehandelter Pflanzen
(§2) Boniturnoten von 1 bis 4 (insbesondere von 1 bis 3) weisen auf eine gute bis sehr gute Herbizidwirkung hin. Boniturnoten von 6 bis 9 (insbesondere 7 bis 9) weisen auf eine gute Toleranz (insbesondere bei Kulturpflanzen) hin.

Alopecurus myos. [2] = assay: Pre-emergent herbicidal action (B.2); conditions: 500 bis 2000 [g/ha], evaluated after 3 weeks
Experimental: as §1, §2

Amaranthus ret. [3] = assay: Pre-emergent herbicidal action (B.2); conditions: 500 bis 2000 [g/ha], evaluated after 3 weeks
Experimental: as §1, §2

Avena fatua [4] = assay: Pre-emergent herbicidal action (B.2); conditions: 500 bis 2000 [g/ha], evaluated after 3 weeks
Experimental: as §1, §2

Bromus tectorum [5] = assay: Pre-emergent herbicidal action (B.2); conditions: 500 bis 2000 [g/ha], evaluated after 3 weeks
Experimental: as §1, §2

Chenopodium Sp. [6] = assay: Pre-emergent herbicidal action (B.2); conditions: 500 bis 2000 [g/ha], evaluated after 3 weeks
Experimental: as §1, §2

Chrysanthe. leuc. [7] = assay: Pre-emergent herbicidal action (B.2); conditions: 500 bis 2000 [g/ha], evaluated after 3 weeks
Experimental: as §1, §2

Digitaria sang. [8] = assay: Pre-emergent herbicidal action (B.2); conditions: 500 bis 2000 [g/ha], evaluated after 3 weeks
Experimental: as §1, §2

Echinochloa crus galli [9] = assay: Pre-emergent herbicidal action (B.2); conditions: 500 bis 2000 [g/ha], evaluated after 3 weeks
Experimental: as §1, §2

Galium aparine [10] = assay: Pre-emergent herbicidal action (B.2); conditions: 500 bis 2000 [g/ha], evaluated after 3 weeks
Experimental: as §1, §2

Ipomoea = assay: Pre-emergent herbicidal action (B.2); conditions: 500 bis 2000 [g/ha], evaluated after 3 weeks
Experimental: as §1, §2

Lolium perenne [11] = assay: Pre-emergent herbicidal action (B.2); conditions: 500 bis 2000 [g/ha], evaluated after 3 weeks
Experimental: as §1, §2

Sinapis [12] = assay: Pre-emergent herbicidal action (B.2); conditions: 500 bis 2000 [g/ha], evaluated after 3 weeks
Experimental: as §1, §2

Solanum nigrum [13] = assay: Pre-emergent herbicidal action (B.2); conditions: 500 bis 2000 [g/ha], evaluated after 3 weeks
Experimental: as §1, §2

Sorghum halep. [14] = assay: Pre-emergent herbicidal action (B.2); conditions: 500 bis 2000 [g/ha], evaluated after 3 weeks
Experimental: as §1, §2

Stellaria [15] = assay: Pre-emergent herbicidal action (B.2); conditions: 500 bis 2000 [g/ha], evaluated after 3 weeks
Experimental: as §1, §2

Veronica Sp. [16] = assay: Pre-emergent herbicidal action (B.2); conditions: 500 bis 2000 [g/ha], evaluated after 3 weeks
Experimental: as §1, §2

Abutilon [17] = assay: Post-emergent herbicidal action, contact herbicide (B.3); conditions: 500 bis 2000 [g/ha], 15 days after treatment
Experimental: as §1, §2
(§3) Eine Anzahl Unkräuter, sowohl monokotyle wie dikotyle, werden nach dem Auflaufen (im 4- bis 6-Blattstadium) mit einer wässrigen Wirkstoffdispersion in einer Dosierung von 2000-500 g Wirksubstanz pro Hektar auf die Pflanzen gespritzt und diese bei 24°-26°C und 45-60 % relativer Luftfeuchtigkeit gehalten. 15 Tage nach der Behandlung wird der Versuch nach dem in Beispiel B.2. gegebenen Massstab bewertet.

Alopecurus myos. [18] = assay: as above; conditions: 500 bis 2000 [g/ha], 15 days after treatment
Experimental: as §1, §2, §3

Amaranthus ret. [19] = assay: as above; conditions: 500 bis 2000 [g/ha], 15 days after treatment
Experimental: as §1, §2, §3

Avena fatua [20] = assay: as above; conditions: 500 bis 2000 [g/ha], 15 days after treatment
Experimental: as §1, §2, §3

Bromus tectorum [21] = assay: as above; conditions: 500 bis 2000 [g/ha], 15 days after treatment
Experimental: as §1, §2, §3

Chenopodium Sp. [22] = assay: as above; conditions: 500 bis 2000 [g/ha], 15 days after treatment
Experimental: as §1, §2, §3

Chrysanthe. leuc. [23] = assay: as above; conditions: 500 bis 2000 [g/ha], 15 days after treatment
Experimental: as §1, §2, §3

Digitaria sang. [24] = assay: as above; conditions: 500 bis 2000 [g/ha], 15 days after treatment
Experimental: as §1, §2, §3

Echinochloa crus galli [25] = assay: as above; conditions: 500 bis 2000 [g/ha], 15 days after treatment
Experimental: as §1, §2, §3

Galium aparine [26] = assay: as above; conditions: 500 bis 2000 [g/ha], 15 days after treatment
Experimental: as §1, §2, §3

Lolium perenne [27] = assay: as above; conditions: 500 bis 2000 [g/ha], 15 days after treatment
Experimental: as §1, §2, §3

Sinapis [28] = assay: as above; conditions: 500 bis 2000 [g/ha], 15 days after treatment
Experimental: as §1, §2, §3

Solanum nigrum [29] = assay: as above; conditions: 500 bis 2000 [g/ha], 15 days after treatment
Experimental: as §1, §2, §3

Sorghum halep. [30] = assay: as above; conditions: 500 bis 2000 [g/ha], 15 days after treatment
Experimental: as §1, §2, §3

Stellaria [31] = assay: as above; conditions: 500 bis 2000 [g/ha], 15 days after treatment
Experimental: as §1, §2, §3

Veronica Sp. [32] = assay: as above; conditions: 500 bis 2000 [g/ha], 15 days after treatment
Experimental: as §1, §2, §3

Xanthium Sp. = assay: as above; conditions: 500 bis 2000 [g/ha], 15 days after treatment
Experimental: as §1, §2, §3

Untersaaten in Mais = assay: Pre-post selectivity: growth inhibition of undersown grasses (post-emergent) versus maize (pre-emergent)
Source text: Verbindungen der Formel I zeigen in vorteilhafter Weise eine "pre-post-Selektivität" bei verscheidenen Gräsern in Maiskulturen.
Die wuchshemmende Wirkung in Gräsern ist in postemergenter Applikation stark ausgeprägt, während bei gleichzeitiger Preemergenter Applikation Maispflanzen in ihrem Wuchs nur geringfügig gehemmt werden. Derartige "pre-post-Selektivitäten" erlauben somit die Aussaat von Mais in Gräsern. Dabei soll der Zeitpunkt für die Applikation der Aktivsubstanz der Formel so gewählt werden, dass die Aktivsubstanz postemergent für die Gräser ober preemergent für den Mais angewendet wird. In den ersten Wochen ist der Zuwachs der Gräser so stark gehemmt, dass die Maispflanze sich ungehindert entfalten kann.
Eine Mischung von Gräsern (z.B. Poa, Festuca, Lolium, Bromus, Cynosurus) werden in 15 cm - Kunststofftöpfen mit steriler Landerde angesät und im Gewächshaus bei einer Tagestemperatur von 21°C und einer Nachttemperatur von 17°C angezogen. Die Beleuchtungsdauer beträgt 13,5 Stunden/Tag bei einer Lichtintensität von mind. 7000 Lux. Nach dem Ablauf werden die Pflanzen wöchentlich auf ca. 6 cm Höhe zurückgeschnitten. Ca. 42 Tage nach der Saat und 1 Tag nach dem letzten Schnitt erfolgt die Applikation mit 60-500 g Wirkstoff/ha als wässrige Spritzbrühe. Die Wasseraufwandmenge ist ca. 500 I/ha.
20 Tage nach der Behandlung wird der Versuch ausgewertet. Hierbei wird die Höhe des Neuzuwachses gemessen und in % Hemmung zum Durchschnitt der unbehandelten Kontrollen dargestellt. Die nekrotischen Schäden sind in % zur gesamten Blattfläche aufgeführt.
Mais der Sorte Blizzard G188 werden in 15 cm - Kunststofftöpfen mit steriler gesiebter Landerde angesät und im Gewächshaus bei einer Tagestemperatur von 22°C und einer Nachttemperatur von 19°C aufgestellt. Die Beleuchtungsdauer beträgt mindestens 13,5 Stunden/Tag bei einer Lichtintensität von mindestens 7000 Lux. 1 Tag nach der Saat erfolgt die Applikation mit 60-500 g Wirkstoff/ha, in der Regel 25 %ig formuliert und in wässriger Spritzbrühe. Die Wasseraufwandmenge ist ca. 200 I/ha.
16 Tage nach der Behandlung wird der Versuch ausgewertet. […]

## CC1CCCc2nc3c(cc21)C(=O)N1C(=O)C(C)(C(C)C)N=C31 (centres unmarked) [Verbindung 3.02, 2,7-Dimethyl-2-isopropyl-7,8,9,10-tetrahydro-3H,5H-imidazo[1',2':1,2]pyrrolo[3,4-b]chinolin-3,5-dion]
Abutilon [1]
  Herbizidwirkung: gute bis sehr gute Herbizidwirkung (Boniturnoten von 1 bis 4 (insbesondere von 1 bis 3) weisen auf eine gute bis sehr gute Herbizidwirkung hin)
Alopecurus myos. [2]
  Herbizidwirkung: gute bis sehr gute Herbizidwirkung (Boniturnoten von 1 bis 4 (insbesondere von 1 bis 3) weisen auf eine gute bis sehr gute Herbizidwirkung hin)
Amaranthus ret. [3]
  Herbizidwirkung: gute bis sehr gute Herbizidwirkung (Boniturnoten von 1 bis 4 (insbesondere von 1 bis 3) weisen auf eine gute bis sehr gute Herbizidwirkung hin)
Avena fatua [4]
  Herbizidwirkung: gute bis sehr gute Herbizidwirkung (Boniturnoten von 1 bis 4 (insbesondere von 1 bis 3) weisen auf eine gute bis sehr gute Herbizidwirkung hin)
Bromus tectorum [5]
  Herbizidwirkung: gute bis sehr gute Herbizidwirkung (Boniturnoten von 1 bis 4 (insbesondere von 1 bis 3) weisen auf eine gute bis sehr gute Herbizidwirkung hin)
Chenopodium Sp. [6]
  Herbizidwirkung: gute bis sehr gute Herbizidwirkung (Boniturnoten von 1 bis 4 (insbesondere von 1 bis 3) weisen auf eine gute bis sehr gute Herbizidwirkung hin)
Chrysanthe. leuc. [7]
  Herbizidwirkung: gute bis sehr gute Herbizidwirkung (Boniturnoten von 1 bis 4 (insbesondere von 1 bis 3) weisen auf eine gute bis sehr gute Herbizidwirkung hin)
Digitaria sang. [8]
  Herbizidwirkung: gute bis sehr gute Herbizidwirkung (Boniturnoten von 1 bis 4 (insbesondere von 1 bis 3) weisen auf eine gute bis sehr gute Herbizidwirkung hin)
Echinochloa crus galli [9]
  Herbizidwirkung: gute bis sehr gute Herbizidwirkung (Boniturnoten von 1 bis 4 (insbesondere von 1 bis 3) weisen auf eine gute bis sehr gute Herbizidwirkung hin)
Galium aparine [10]
  Herbizidwirkung: gute bis sehr gute Herbizidwirkung (Boniturnoten von 1 bis 4 (insbesondere von 1 bis 3) weisen auf eine gute bis sehr gute Herbizidwirkung hin)
Ipomoea
  Herbizidwirkung: gute bis sehr gute Herbizidwirkung (Boniturnoten von 1 bis 4 (insbesondere von 1 bis 3) weisen auf eine gute bis sehr gute Herbizidwirkung hin)
Lolium perenne [11]
  Herbizidwirkung: gute bis sehr gute Herbizidwirkung (Boniturnoten von 1 bis 4 (insbesondere von 1 bis 3) weisen auf eine gute bis sehr gute Herbizidwirkung hin)
Sinapis [12]
  Herbizidwirkung: gute bis sehr gute Herbizidwirkung (Boniturnoten von 1 bis 4 (insbesondere von 1 bis 3) weisen auf eine gute bis sehr gute Herbizidwirkung hin)
Solanum nigrum [13]
  Herbizidwirkung: gute bis sehr gute Herbizidwirkung (Boniturnoten von 1 bis 4 (insbesondere von 1 bis 3) weisen auf eine gute bis sehr gute Herbizidwirkung hin)
Sorghum halep. [14]
  Herbizidwirkung: gute bis sehr gute Herbizidwirkung (Boniturnoten von 1 bis 4 (insbesondere von 1 bis 3) weisen auf eine gute bis sehr gute Herbizidwirkung hin)
Stellaria [15]
  Herbizidwirkung: gute bis sehr gute Herbizidwirkung (Boniturnoten von 1 bis 4 (insbesondere von 1 bis 3) weisen auf eine gute bis sehr gute Herbizidwirkung hin)
Veronica Sp. [16]
  Herbizidwirkung: gute bis sehr gute Herbizidwirkung (Boniturnoten von 1 bis 4 (insbesondere von 1 bis 3) weisen auf eine gute bis sehr gute Herbizidwirkung hin)
Abutilon [17]
  Herbizidwirkung: gute bis sehr gute Herbizidwirkung (Boniturnoten von 1 bis 4 (insbesondere von 1 bis 3) weisen auf eine gute bis sehr gute Herbizidwirkung hin)
Alopecurus myos. [18]
  Herbizidwirkung: gute bis sehr gute Herbizidwirkung (Boniturnoten von 1 bis 4 (insbesondere von 1 bis 3) weisen auf eine gute bis sehr gute Herbizidwirkung hin)
Amaranthus ret. [19]
  Herbizidwirkung: gute bis sehr gute Herbizidwirkung (Boniturnoten von 1 bis 4 (insbesondere von 1 bis 3) weisen auf eine gute bis sehr gute Herbizidwirkung hin)
Avena fatua [20]
  Herbizidwirkung: gute bis sehr gute Herbizidwirkung (Boniturnoten von 1 bis 4 (insbesondere von 1 bis 3) weisen auf eine gute bis sehr gute Herbizidwirkung hin)
Bromus tectorum [21]
  Herbizidwirkung: gute bis sehr gute Herbizidwirkung (Boniturnoten von 1 bis 4 (insbesondere von 1 bis 3) weisen auf eine gute bis sehr gute Herbizidwirkung hin)
Chenopodium Sp. [22]
  Herbizidwirkung: gute bis sehr gute Herbizidwirkung (Boniturnoten von 1 bis 4 (insbesondere von 1 bis 3) weisen auf eine gute bis sehr gute Herbizidwirkung hin)
Chrysanthe. leuc. [23]
  Herbizidwirkung: gute bis sehr gute Herbizidwirkung (Boniturnoten von 1 bis 4 (insbesondere von 1 bis 3) weisen auf eine gute bis sehr gute Herbizidwirkung hin)
Digitaria sang. [24]
  Herbizidwirkung: gute bis sehr gute Herbizidwirkung (Boniturnoten von 1 bis 4 (insbesondere von 1 bis 3) weisen auf eine gute bis sehr gute Herbizidwirkung hin)
Echinochloa crus galli [25]
  Herbizidwirkung: gute bis sehr gute Herbizidwirkung (Boniturnoten von 1 bis 4 (insbesondere von 1 bis 3) weisen auf eine gute bis sehr gute Herbizidwirkung hin)
Galium aparine [26]
  Herbizidwirkung: gute bis sehr gute Herbizidwirkung (Boniturnoten von 1 bis 4 (insbesondere von 1 bis 3) weisen auf eine gute bis sehr gute Herbizidwirkung hin)
Lolium perenne [27]
  Herbizidwirkung: gute bis sehr gute Herbizidwirkung (Boniturnoten von 1 bis 4 (insbesondere von 1 bis 3) weisen auf eine gute bis sehr gute Herbizidwirkung hin)
Sinapis [28]
  Herbizidwirkung: gute bis sehr gute Herbizidwirkung (Boniturnoten von 1 bis 4 (insbesondere von 1 bis 3) weisen auf eine gute bis sehr gute Herbizidwirkung hin)
Solanum nigrum [29]
  Herbizidwirkung: gute bis sehr gute Herbizidwirkung (Boniturnoten von 1 bis 4 (insbesondere von 1 bis 3) weisen auf eine gute bis sehr gute Herbizidwirkung hin)
Sorghum halep. [30]
  Herbizidwirkung: gute bis sehr gute Herbizidwirkung (Boniturnoten von 1 bis 4 (insbesondere von 1 bis 3) weisen auf eine gute bis sehr gute Herbizidwirkung hin)
Stellaria [31]
  Herbizidwirkung: gute bis sehr gute Herbizidwirkung (Boniturnoten von 1 bis 4 (insbesondere von 1 bis 3) weisen auf eine gute bis sehr gute Herbizidwirkung hin)
Veronica Sp. [32]
  Herbizidwirkung: gute bis sehr gute Herbizidwirkung (Boniturnoten von 1 bis 4 (insbesondere von 1 bis 3) weisen auf eine gute bis sehr gute Herbizidwirkung hin)
Xanthium Sp.
  Herbizidwirkung: gute bis sehr gute Herbizidwirkung (Boniturnoten von 1 bis 4 (insbesondere von 1 bis 3) weisen auf eine gute bis sehr gute Herbizidwirkung hin)
Untersaaten in Mais
  "pre-post-Selektivität" bei Untersaaten in Mais: ausgeprägter "pre-post-Selektivität"

Source: patent EP0327492A1, “Herbicidally and plantgrowth regulatory active quinoline and pyrindine compounds” (CIBA-GEIGY AG, priority 1988, dated 1989)
